Measurements published in patent US12576099B2, “Ribose-modified cap analog and use thereof” (Beijing Youcare Kechuang Pharmaceutical Technology Co., Ltd., priority 2024, dated 2026).

Experiments:
T7 RNA polymerase [1] = target: T1, T7 RNA polymerase (Escherichia phage T7, UniProt P00573); experiment: In vitro transcription yield of mRNA using cap analogs; format: biochemical; settings: for Yield per unit template: in vitro transcription, 1 μg DNA template, 37° C., 2 hours
Protocol: • (1) Capping synthesis using cap analogs
The plasmid was first linearized with plasmid linearizing enzyme, and then the linearized plasmid was purified. • (2) In vitro transcription and synthesis of mRNA
(§1) During the experiment, the volume of materials required for the system was first calculated, and then sample addition was conducted. The system was first added with sterile enzyme-free water, followed by the sequential addition of 10× buffer, NTPs, and cap analogs, mixed well, and gently centrifuged. Nuclease inhibitors, inorganic pyrophosphatase, T7RNA polymerase, and linearized DNA templates were then added thereto. The system was mixed well, gently centrifuged, and incubated at 37° C. After 2 hours of incubation, the system was added with 1 U of DNase I and incubated at 37° C. for another 30 minutes. The mRNA precipitate was then washed with 75% ethanol, and after the ethanol was briefly evaporated to dryness, the mRNA was redissolved in sterile enzyme-free water. • (3) The transcription product was purified, and the in vitro transcription yield of mRNA was recorded. • (4) The obtained mRNA was subjected to an annealing reaction with a probe.

T7 RNA polymerase [2] = target: T1, T7 RNA polymerase; experiment: Capping rate of mRNA transcription initiated by cap analogs (LC-MS); format: biochemical; settings: for Capping rate: LC-MS of mRNA 5′ fragment
Protocol: as §1
The annealing reaction was performed in a PCR instrument: 95° C. for 5 minutes; 65° C. for 2 minutes; 55° C. for 2 minutes; 40° C. for 2 minutes; 22° C. for 2 minutes. • (5) Magnetic bead pretreatment and probe binding: 100 μL of magnetic beads was placed on a magnetic frame for pretreatment. The magnetic bead solution was added with 120 μL of sample and incubated at room temperature for 30 minutes with slow mixing. • (6) mRNA splicing and obtaining the mRNA 5′ single-strand sequence bound to the probe
The mixture was added with 20 μL of RNase H (5 U/μL) and incubated at 37° C. for 3 hours with mixing every half hour. After incubation, the magnetic beads were washed and then added with 100 μL of 75% methanol heated to 80° C. The mixture was heated to 80° C. on a heating plate, held for 3 minutes, then placed on a magnetic frame to aspirate the supernatant, and dried at room temperature for 45 minutes to a volume of 10 μL using a centrifugal evaporator. The sample was then resuspended in 50 μL of 100 μM EDTA/1% MeOH and ready for LC-MS analysis to determine the capping of RNA in the transcription reaction. Since there is a significant difference in molecular weight between capped and uncapped bases, the capping rate of mRNA transcription initiated by different cap analogs can be determined based on the difference in molecular mass.

HEK293T cells = experiment: Translation efficiency of different capped luciferase mRNAs; format: cell-based; settings: for Relative fluorescence intensity: HEK293T, 0.5 μg mRNA per well, 24 hours, proportional to translation efficiency; for Multiple of m6A (relative fluorescence intensity): relative to m6A
Outline: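 HEK293T cells were transfected with 0.5 μg capped luciferase mRNA per well (Lipofectamine MessengerMAX) and cultured 24 h at 37 °C. Lysates were mixed with Dual-Lumi II reagent for 5 min at about 25 °C; luminescence served as the measure of translation efficiency.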

DCP2 enzyme = target: T2, DCP2 enzyme (Schizosaccharomyces pombe, UniProt O13828); experiment: Decapping enzyme stability test; format: biochemical; settings: for Decapping rate (%) of DCP2 enzyme: 50 U mRNA decapping enzyme, 37° C., 45 minutes
T2 construct: purchased New England Biolabs
T2 sequence (O13828 1-243 limits assumed): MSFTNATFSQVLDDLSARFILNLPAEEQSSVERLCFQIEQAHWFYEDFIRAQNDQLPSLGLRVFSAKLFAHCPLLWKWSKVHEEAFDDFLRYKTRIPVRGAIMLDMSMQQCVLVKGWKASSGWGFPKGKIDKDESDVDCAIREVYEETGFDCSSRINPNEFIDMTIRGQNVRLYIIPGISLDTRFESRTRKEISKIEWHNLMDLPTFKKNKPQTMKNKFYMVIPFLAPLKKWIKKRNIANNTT
T2 sequence (Q9P805 1-127 partner): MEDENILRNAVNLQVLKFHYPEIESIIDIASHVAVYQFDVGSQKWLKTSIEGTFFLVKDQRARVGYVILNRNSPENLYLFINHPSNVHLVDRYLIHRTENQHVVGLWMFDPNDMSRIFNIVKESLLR
T2 sequence (Q10108 155-180 partner limits assumed): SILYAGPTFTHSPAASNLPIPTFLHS
Outline: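 PAGE-purified RNA ([…]) incubated with 50 U mRNA decapping enzyme in 1×MDE buffer at 37° C. for 45 minutes. Products resolved by PAGE, SYBR Green II stained; decapping rate derived from capped-to-decapped band intensity ratio.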

T1 sequence (P00573 whole entry): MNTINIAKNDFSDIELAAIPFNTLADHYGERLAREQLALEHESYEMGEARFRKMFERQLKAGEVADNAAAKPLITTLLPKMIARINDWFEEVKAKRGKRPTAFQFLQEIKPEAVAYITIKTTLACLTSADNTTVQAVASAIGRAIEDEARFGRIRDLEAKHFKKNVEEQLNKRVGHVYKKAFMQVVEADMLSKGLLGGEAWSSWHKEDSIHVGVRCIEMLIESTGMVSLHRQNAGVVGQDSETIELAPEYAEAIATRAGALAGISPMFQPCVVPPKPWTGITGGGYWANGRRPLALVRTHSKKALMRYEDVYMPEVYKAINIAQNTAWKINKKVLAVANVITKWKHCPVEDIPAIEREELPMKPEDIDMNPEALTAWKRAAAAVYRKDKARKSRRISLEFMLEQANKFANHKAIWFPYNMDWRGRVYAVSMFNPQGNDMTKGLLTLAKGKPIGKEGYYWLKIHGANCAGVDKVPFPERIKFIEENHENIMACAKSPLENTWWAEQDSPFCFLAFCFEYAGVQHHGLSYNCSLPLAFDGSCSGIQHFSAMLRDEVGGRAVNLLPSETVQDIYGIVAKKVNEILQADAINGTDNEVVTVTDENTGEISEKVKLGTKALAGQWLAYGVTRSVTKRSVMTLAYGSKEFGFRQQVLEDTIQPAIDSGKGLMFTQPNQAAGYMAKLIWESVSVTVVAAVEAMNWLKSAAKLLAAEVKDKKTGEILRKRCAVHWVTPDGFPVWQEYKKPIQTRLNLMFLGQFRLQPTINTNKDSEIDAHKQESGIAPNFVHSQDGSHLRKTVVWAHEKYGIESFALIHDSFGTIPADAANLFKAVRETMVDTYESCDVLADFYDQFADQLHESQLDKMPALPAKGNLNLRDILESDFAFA

## CO[C@@H]1[C@H](OP(=O)(O)OC[C@H]2O[C@@H](n3cnc4c(=O)[nH]c(N)nc43)[C@H](O)[C@@H]2O)[C@@H](COP(=O)(O)OP(=O)(O)OP(=O)(O)OC[C@@]2(CF)O[C@@H]([n+]3cn(C)c4c(=O)[nH]c(N)nc43)[C@H](O)[C@@H]2O)O[C@H]1n1cnc2c(N)ncnc21 [YK-CAP-118]
T7 RNA polymerase [1]
  Yield per unit template: 172.2 µg
  Increase relative to 5227 (in vitro transcription yield): 28.3%
T7 RNA polymerase [2]
  Capping rate: 97.2%
  Increase relative to 5227 (capping rate): 35.2%
HEK293T cells
  Relative fluorescence intensity: 1.65
  Multiple of m6A (relative fluorescence intensity): 4.3
DCP2 enzyme
  Decapping rate (%) of DCP2 enzyme: 11.9%
  Decrease relative to N-7113 (decapping rate): 31.9%

## COC(C)[C@H]1[C@@H](O)[C@H]([n+]2cn(C)c3c(=O)[nH]c(N)nc32)O[C@@H]1COP(=O)(O)OP(=O)(O)OP(=O)(O)OC[C@H]1O[C@@H](n2cnc3c(N)ncnc32)[C@H](OC)[C@@H]1OP(=O)(O)OC[C@H]1O[C@@H](n2cnc3c(=O)[nH]c(N)nc32)[C@H](O)[C@@H]1O (stereo partly drawn) [YK-CAP-107]
T7 RNA polymerase [1]
  Yield per unit template: 170.7 µg
  Increase relative to 5227 (in vitro transcription yield): 27.2%
T7 RNA polymerase [2]
  Capping rate: 97.3%
  Increase relative to 5227 (capping rate): 35.3%
HEK293T cells
  Relative fluorescence intensity: 1.62
  Multiple of m6A (relative fluorescence intensity): 4.3
DCP2 enzyme
  Decapping rate (%) of DCP2 enzyme: 11.5%
  Decrease relative to N-7113 (decapping rate): 32.3%

## CO[C@@H]1[C@H](OP(=O)(O)OC[C@H]2O[C@@H](n3cnc4c(=O)[nH]c(N)nc43)[C@H](O)[C@@H]2O)[C@@H](COP(=O)(O)OP(=O)(O)OP(=O)(O)OC[C@H]2O[C@@H]([n+]3cn(C)c4c(=O)[nH]c(N)nc43)[C@H](O)[C@@H]2C(C)NC(C)=O)O[C@H]1n1cnc2c(N)ncnc21 (stereo partly drawn) [YK-CAP-108]
T7 RNA polymerase [1]
  Yield per unit template: 151.8 µg
  Increase relative to 5227 (in vitro transcription yield): 13.1%
T7 RNA polymerase [2]
  Capping rate: 95.8%
  Increase relative to 5227 (capping rate): 33.2%
HEK293T cells
  Relative fluorescence intensity: 1.43
  Multiple of m6A (relative fluorescence intensity): 3.8
DCP2 enzyme
  Decapping rate (%) of DCP2 enzyme: 16.3%
  Decrease relative to N-7113 (decapping rate): 27.5%

## CCN(CC)C(=O)[C@H]1[C@@H](O)[C@H]([n+]2cn(C)c3c(=O)[nH]c(N)nc32)O[C@@H]1COP(=O)(O)OP(=O)(O)OP(=O)(O)OC[C@H]1O[C@@H](n2cnc3c(N)ncnc32)[C@H](OC)[C@@H]1OP(=O)(O)OC[C@H]1O[C@@H](n2cnc3c(=O)[nH]c(N)nc32)[C@H](O)[C@@H]1O [YK-CAP-111]
T7 RNA polymerase [1]
  Yield per unit template: 173.5 µg
  Increase relative to 5227 (in vitro transcription yield): 29.3%
T7 RNA polymerase [1]; relative to YK-CAP-101
  Transcription yield, times that of YK-CAP-101: 5.3 times
T7 RNA polymerase [1]; relative to YK-CAP-102
  Transcription yield, times that of YK-CAP-102: 3.9 times
T7 RNA polymerase [1]; relative to YK-CAP-103
  Transcription yield, times that of YK-CAP-103: 2.0 times
T7 RNA polymerase [1]; relative to YK-CAP-104
  Transcription yield, times that of YK-CAP-104: 2.4 times
T7 RNA polymerase [1]; relative to YK-CAP-105
  Transcription yield, times that of YK-CAP-105: 2.1 times
T7 RNA polymerase [1]; relative to compound 14
  In vitro transcription yield of mRNA higher than that of compound 14: 40.8%
T7 RNA polymerase [2]
  Capping rate: 98.1%
  Increase relative to 5227 (capping rate): 36.4%
T7 RNA polymerase [2]; relative to YK-CAP-101
  Capping rate, times that of YK-CAP-101: 2.3 times
T7 RNA polymerase [2]; relative to YK-CAP-102
  Capping rate, times that of YK-CAP-102: 3.2 times
T7 RNA polymerase [2]; relative to YK-CAP-103
  Capping rate, times that of YK-CAP-103: 1.4 times
T7 RNA polymerase [2]; relative to YK-CAP-104
  Capping rate, times that of YK-CAP-104: 1.3 times
T7 RNA polymerase [2]; relative to YK-CAP-105
  Capping rate, times that of YK-CAP-105: 1.4 times
T7 RNA polymerase [2]; relative to compound 14
  Capping rate higher than that of compound 14: 25.3%
HEK293T cells
  Relative fluorescence intensity: 2.12
  Multiple of m6A (relative fluorescence intensity): 5.6
HEK293T cells; relative to HN3002
  Relative fluorescence intensity, times that of HN3002: 1.9 times
HEK293T cells; relative to N-7113
  Relative fluorescence intensity, times that of N-7113: 2.1 times
HEK293T cells; relative to YK-CAP-101
  Relative fluorescence intensity (translation efficiency), times that of YK-CAP-101: 9.6 times
HEK293T cells; relative to YK-CAP-102
  Relative fluorescence intensity, times that of YK-CAP-102: 6.2 times
HEK293T cells; relative to YK-CAP-103
  Relative fluorescence intensity, times that of YK-CAP-103: 2.8 times
HEK293T cells; relative to YK-CAP-104
  Relative fluorescence intensity, times that of YK-CAP-104: 2.6 times
HEK293T cells; relative to YK-CAP-105
  Relative fluorescence intensity, times that of YK-CAP-105: 2.9 times
HEK293T cells; relative to compound 14
  Relative fluorescence intensity, times that of compound 14: 1.9 times
DCP2 enzyme
  Decapping rate (%) of DCP2 enzyme: 11.5%
  Decrease relative to N-7113 (decapping rate): 32.3%

## CO[C@@H]1[C@H](OP(=O)(O)OC[C@H]2O[C@@H](n3cnc4c(=O)[nH]c(N)nc43)[C@H](O)[C@@H]2O)[C@@H](COP(=O)(O)OP(=O)(O)OP(=O)(O)OC[C@H]2O[C@@H]([n+]3cn(C)c4c(=O)[nH]c(N)nc43)[C@H](O)[C@@H]2C(C)F)O[C@H]1n1cnc2c(N)ncnc21 (stereo partly drawn) [YK-CAP-109]
T7 RNA polymerase [1]
  Yield per unit template: 168.1 µg
  Increase relative to 5227 (in vitro transcription yield): 25.3%
T7 RNA polymerase [2]
  Capping rate: 95.2%
  Increase relative to 5227 (capping rate): 32.4%
HEK293T cells
  Relative fluorescence intensity: 1.53
  Multiple of m6A (relative fluorescence intensity): 4.0
DCP2 enzyme
  Decapping rate (%) of DCP2 enzyme: 17.3%
  Decrease relative to N-7113 (decapping rate): 26.5%

## CO[C@@H]1[C@H](OP(=O)(O)OC[C@H]2O[C@@H](n3cnc4c(=O)[nH]c(N)nc43)[C@H](O)[C@@H]2O)[C@@H](COP(=O)(O)OP(=O)(O)OP(=O)(O)OC[C@H]2O[C@@H]([n+]3cn(C)c4c(=O)[nH]c(N)nc43)[C@H](O)[C@]2(C)NC(C)=O)O[C@H]1n1cnc2c(N)ncnc21 [YK-CAP-106]
T7 RNA polymerase [1]
  Yield per unit template: 155.5 µg
  Increase relative to 5227 (in vitro transcription yield): 15.9%
T7 RNA polymerase [2]
  Capping rate: 95.3%
  Increase relative to 5227 (capping rate): 32.5%
HEK293T cells
  Relative fluorescence intensity: 1.53
  Multiple of m6A (relative fluorescence intensity): 4.0
DCP2 enzyme
  Decapping rate (%) of DCP2 enzyme: 17.3%
  Decrease relative to N-7113 (decapping rate): 26.5%

## COC[C@@H]1[C@H](OP(=O)(O)OC[C@H]2O[C@@H](n3cnc4c(=O)[nH]c(N)nc43)[C@H](O)[C@@H]2O)[C@@H](COP(=O)(O)OP(=O)(O)OP(=O)(O)OC[C@H]2O[C@@H]([n+]3cn(C)c4c(=O)[nH]c(N)nc43)[C@H](O)[C@@H]2O)O[C@H]1n1cnc2c(N)ncnc21 [YK-CAP-113]
T7 RNA polymerase [1]
  Yield per unit template: 166.1 µg
  Increase relative to 5227 (in vitro transcription yield): 23.8%
T7 RNA polymerase [2]
  Capping rate: 95.2%
  Increase relative to 5227 (capping rate): 32.4%
HEK293T cells
  Relative fluorescence intensity: 1.63
  Multiple of m6A (relative fluorescence intensity): 4.3
DCP2 enzyme
  Decapping rate (%) of DCP2 enzyme: 15.3%
  Decrease relative to N-7113 (decapping rate): 28.5%

## CO[C@@H]1[C@H](OP(=O)(O)OC[C@H]2O[C@@H](n3cnc4c(=O)[nH]c(N)nc43)[C@H](O)[C@@H]2O)[C@@H](COP(=O)(O)OP(=O)(O)OP(=O)(O)OC[C@@]2(OC)O[C@@H]([n+]3cn(C)c4c(=O)[nH]c(N)nc43)[C@H](O)[C@@H]2O)O[C@H]1n1cnc2c(N)ncnc21 [compound 5227, reference compound]
T7 RNA polymerase [1]
  Yield per unit template: 134.2 µg
  Increase relative to 5227 (in vitro transcription yield): 0%
T7 RNA polymerase [2]
  Capping rate: 71.9%
  Increase relative to 5227 (capping rate): 0%
HEK293T cells
  Relative fluorescence intensity: 0.82
  Multiple of m6A (relative fluorescence intensity): 2.2
DCP2 enzyme
  Decapping rate (%) of DCP2 enzyme: 23.2%
  Decrease relative to N-7113 (decapping rate): 20.6%
